According to US8552064B2, “Suramin and derivatives thereof as topical microbicide and contraceptive” (Eastern Virginia Medical School, priority 2005, dated 2013):
In brackets after ≈: the same amount, converted by molar mass. Where two headings read alike, the source gives them in different places.

What was measured:
Neisseria gonorrhoeae = experiment: Gonococcal growth inhibition (multiplication assay); assay type: cell-based
Procedure: Gonococcal growth inhibition assays were performed by the method of Anderson R. A., et al., J. Androl., 21: 862-875; 2000. Briefly, Neisseria gonorrhea from local uncomplicated cases of gonorrhea were isolated (verified by Gram stain, oxidase reactivity and sugar fermentation). The titer of log-phase cultures were adjusted by dilution in GC broth to 0.5 McFarland standard (approximately 10^8 colony forming units per ml). This was diluted 1:10 with broth that contained no additions (control), and each of serial 1:10 dilutions of test agent, ranging from 1 mg/ml to 1.0 μg/ml. The cultures were incubated at 37° C. for four hours. Four serial 1:10 dilutions were made in GC broth, and a portion of each dilution was inoculated onto GC agar plates. The plates were incubated overnight, and resultant gonococcal colonies were counted under bright-field microscopy. Data for each concentration of suramin were expressed as the number of colony-forming units (CFU) per ml of the original log-phase bacterial suspension.

[1] = system: HIV-1-infected SupT1 cells (strain IIIB); experiment: Cell-to-cell transmission (CTC) assay; assay type: cell-based; details: for IC50: Human immunodeficiency virus 1, IIIB, SUP-T1
Procedure: HIV-1-infected SupT1 cells (strain IIIB), killed by prior exposure to mitomycin C (200 μg/mL) for 1 hour at 37° C., were incubated with each agent and P4-R5 (MAGI) cells for 2 hours at 37° C. Following the incubation period, cells were washed and provided with new media. Successful transmission and subsequent replication events were quantitated using Galacto-Star assay 48 hr post-infection. Infected cells were expressed as a percent of cells infected after mock exposure. In each assay, triplicate wells were tested for each concentration. The results of this assay are provided herein.

HIV-1 IIIB = experiment: Virus binding inhibition assay VBIA-IIIB in MT-2 cells; assay type: cell-based
Procedure: VBIAIIIB: MT-2 cells, compounds and virus (HIV-1 IIIB) were mixed together in 96-well plates and incubated for 2 h at 37° C. At the end of this incubation period, the 96-well plates were centrifuged for 10 minutes and approximately 175 μL of medium was removed using a multichannel pipettor and replaced with 175 μL of fresh media. […] Modulation of virus induced cytopathic effects was measured by determining percent reduction in optical density (O.D.) using an XTT (2,3-bis(2-methoxy-4-nitro-5-sulfophenyl)-5-[phenylamino)carbonyl]-2H-tetrazolium hydroxide) dye reduction assay. Virus-induced cytopathic effects and mechanical artifacts due to media removal were verified by microscopic observations (Anderson R. A., et al., J. Androl., 21: 862-875 (2000)). The results of this assay are provided herein.

[2] = system: human sperm binding to zona pellucida; experiment: Hemizona assay (HZA), human sperm-zona binding; assay type: cell-based
Procedure: The hemizona assay, as described in Burkman L. J., et al., Fertil. Steril., 49: 688-697 (1988), was used to measure the ability of sperm to undergo capacitation and bind to the zona pellucida of an oocyte. Briefly, in this assay, motile normal sperm were separated in media with bovine serum albumin, which triggers capacitation. Human motile sperm were separated using a swim-up technique and incubated with 1 mM suramin or solvent-control medium for 15 minutes in 100 μL medium droplets covered with mineral oil, at 37° C., 5% CO2. Sperm were then incubated with dead oocytes which are surrounded by the zona pellucida, an acellular coating of oocytes. Bisected hemizonae corresponding to one oocyte were placed each in the test (suramin) and control (solvent) droplets and incubated for an additional 4 hours. Sperm-hemizonae complexes were washed extensively and capacitated spermatozoa bound to the outer surface of the zonae and were counted under an inverted microscope. The Hemizona Index (HZI) was calculated by dividing the number of suramin-treated sperm bound to one hemizona by the number of untreated (control) sperm bound to the other hemizona.

rabbit sperm = experiment: Rabbit contraceptive efficacy, ex-vivo sperm mixing; assay type: in vivo; details: for inhibition of pregnancy rates (PR): 1 mM (1.4 mg/mL), Table 6: 0.1% (~1 mM); for Implantation Sites (Mean ± SD): 11 days post-insemination
Procedure: Semen was collected from New Zealand White (NZW) male rabbits with the aid of an artifical vagina, pooled and adjusted with a modified Tyrode's albumin lactate pyruvate (TALP) medium to 50 million motile sperm per milliliter. Ovulation was induced in females by injection of 200 IU of human chorionic gonadotropin (hCG) intravenously. Under the ex-vivo (in-vitro) mixing protocol, sperm were incubated with indicated suramin test compounds in a tube for 15 minutes at 37° C. prior to insemination (0.5 mL) as described in Anderson R. A., et al. J. Androl., 21: 862-875 (2000). […] Sperm-compound contact, in this case, took place in vivo, inside the vagina. Insemination and administration of the compound was performed with a flexible, 12 cm long polyurethane catheter. The main endpoints for both protocols were the number of implantation sites counted 11 days after insemination and pregnancy rate. Such sites were counted by visual inspection of the tubes.

[3] = system: murine cytomegalovirus (MCMV) binding to NIH3T3 fibroblasts; experiment: Cytomegalovirus binding assay; assay type: cell-based
Procedure: In a cytomegalovirus binding assay, tritiated murine cytomegalovirus (MCMV) was incubated with NIH3T3 fibroblasts in a 24-well plate fixed (0.4% paraformaldehyde) for 2 hours at 37° C. (rocking) in the presence of media alone or media containing 1-1000 μg/mL suramin. Cells were then washed extensively and lysed with 1% SDS and triton X-100. Lysates were quantified for radioactivity (cpm) in a scintillation counter.

`Cc1ccc(C(=O)Nc2ccc(S(=O)(=O)O)c3cc(S(=O)(=O)O)cc(S(=O)(=O)O)c23)cc1NC(=O)c1cccc(NC(=O)Nc2cccc(C(=O)Nc3cc(C(=O)Nc4ccc(S(=O)(=O)O)c5cc(S(=O)(=O)O)cc(S(=O)(=O)O)c45)ccc3C)c2)c1` [Suramin, 8,8′-(carbonylbis(imino-3,1-phenylenecarbonylimino(4-methyl-3,1-phenylene)carbonylimino))bis-1,3,5-naphthalene trisulfonic acid] was tested, and the “Potency, Gonococcus (GC) Multiplication” value (Neisseria gonorrhoeae) was “Moderate”, the “inhibition of GC growth (multiplication assay)” value (Neisseria gonorrhoeae; 1 mg/mL) was “completely inhibited GC growth” and the “dose-response of GC growth” value (Neisseria gonorrhoeae; 1-1000 μg/mL) was “no clear dose-response”. For the same molecule, the inhibition at 1000 µg/mL (Neisseria gonorrhoeae; Neisseria gonorrhoeae, 1 mg/mL, read-out: inhibition of GC multiplication) was 100%, the “Potency, HIV-1 CTC” value [1] was “High” and the IC50 ([1]; CD4-dependent cell-to-cell transmission, API, read-out: IC50 CTC assay) was 93.5 µg/mL (≈ 72.1 µM). For the same molecule, the IC50 ([1]; not API (Table 8: 2% suramin in Replens), read-out: IC50 CTC, second value beside API) was 9.6 µg/mL (≈ 7.4 µM), the “Potency, HIV-1 VBIA-IIIb” value (HIV-1 IIIB) was “High” and the IC50 (HIV-1 IIIB; Human immunodeficiency virus 1, IIIB, MT2, 72 hours incubation, read-out: IC50 against IIIB, viral entry assay) was 7.3 µg/mL (≈ 5.63 µM). For the same molecule, the “Potency, ZP binding (HZA)” value [2] was “High”, the “Hemizona Index (HZI)” value ([2]; 1 mM, n=9) was 0.08±0.01 and the inhibition at 1000 µM ([2]; Homo sapiens, Sperm, 1 mM) was 92%. For the same molecule, the “effect on PR” value (rabbit sperm; 0.1 mg/mL) was “did not significantly reduce PR”, the “inhibition of pregnancy rates (PR)” value (rabbit sperm) was 86% inhibition and the “inhibition of pregnancy rates (PR)” value (rabbit sperm; listed as suramin sodium) was 86%. For the same molecule, the “inhibition, rabbit pretreated sperm” value (rabbit sperm; 5% in KY Jelly (Table 6)) was 100% inhibition, the prevention of pregnancies (rabbit sperm; five percent (5%) concentration) was “completely prevented pregnancies” and the “Potency, Contraception, rabbit pretreated sperm (In-vitro mixing)” value (rabbit sperm; rabbit, in vivo) was “Moderate”. For the same molecule, the “Pregnancy Rate (%)” value (rabbit sperm; suramin 0.1 mg/ml) was 83%, the “Implantation Sites (Mean ± SD)” value (rabbit sperm; suramin 0.1 mg/ml) was 4.4 ± 0.8 and the “Implantation Sites (Mean ± SD)” value (rabbit sperm; suramin 0.1 mg/ml, listed as suramin sodium) was 4.4±0.8. For the same molecule, the “Number of Pregnant Females/Total” value (rabbit sperm; suramin 0.1 mg/ml, sperm mixed 15 min before insemination) was 5/6, the “Pregnancy Rate (%)” value (rabbit sperm; suramin 1.4 mg/ml) was 14% and the “Number of Pregnant Females/Total” value (rabbit sperm; suramin 1.4 mg/ml (1 mM)) was 1/7. For the same molecule, the “Implantation Sites (Mean ± SD)” value (rabbit sperm; suramin 1.4 mg/ml) was 1, the “Pregnancy Rate (%)” value (rabbit sperm; suramin 50 mg/ml) was 0% and the “Number of Pregnant Females/Total” value (rabbit sperm; suramin 50 mg/ml (5%)) was 0/7. The “Potency, CMV Binding” value [3] was “Moderate” and the IC50 ([3]; NIH3T3, read-out: IC50 CMV binding assay) was 50 µg/mL (≈ 38.5 µM).
